According to patent publication US6737383B1, “Herbicidal oxadiazolidines” (priority 1999, dated 2004):

Tests used:
[1] = system: blackgrass; experiment: Test B pre/postemergence blackgrass; format: in vivo, Alopecurus myosuroides
How it was run: (§1)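 Test chemicals in a non-phytotoxic solvent mixture with surfactant were sprayed preemergence onto planted seeds and postemergence onto plants 2 to 18 cm tall (1- to 4-leaf stage). After twelve to sixteen days in a greenhouse, injury was visually rated against untreated controls from 0 (no effect) to 10 (complete control).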

[2] = system: pigweed; experiment: Test B pre/postemergence pigweed; format: in vivo, Amaranthus retroflexus
How it was run: as §1

[3] = system: rape; experiment: Test B pre/postemergence rape; format: in vivo, Brassica napus
How it was run: as §1

[4] = system: sugar beet; experiment: Test B pre/postemergence sugar beet; format: in vivo, Beta vulgaris
How it was run: as §1

[5] = system: wild oat; experiment: Test B pre/postemergence wild oat; format: in vivo, Avena fatua
How it was run: as §1

[6] = system: cocklebur; experiment: Test B pre/postemergence cocklebur; format: in vivo, Xanthium strumarium
How it was run: as §1

[7] = system: crabgrass; experiment: Test B pre/postemergence crabgrass; format: in vivo, Digitaria sanguinalis
How it was run: as §1

[8] = system: corn; experiment: Test B pre/postemergence corn; format: in vivo, Zea mays
How it was run: as §1

[9] = system: giant foxtail; experiment: Test B pre/postemergence giant foxtail; format: in vivo, Setaria faberii
How it was run: as §1

[10] = system: surinam grass; experiment: Test B pre/postemergence surinam grass; format: in vivo, Brachiaria decumbens
How it was run: as §1

[11] = system: purple nutsedge; experiment: Test B pre/postemergence purple nutsedge; format: in vivo, Cyperus rotundus
How it was run: as §1

[12] = system: morningglory; experiment: Test B pre/postemergence morningglory; format: in vivo, Ipomoea hederacea
How it was run: as §1

[13] = system: soybean; experiment: Test B pre/postemergence soybean; format: in vivo, Glycine max
How it was run: as §1

[14] = system: wheat; experiment: Test B pre/postemergence wheat; format: in vivo, Triticum aestivum
How it was run: as §1

[15] = system: velvetleaf; experiment: Test B pre/postemergence velvetleaf; format: in vivo, Abutilon theophrasti
How it was run: as §1

[16] = system: bedstraw; experiment: Test B pre/postemergence bedstraw; format: in vivo, Galium aparine; settings: Preemergence
How it was run: as §1

[17] = Postemergence, Rate 62 g/ha, scale of 0 to 10, 0 is no effect, 10 is complete control
[18] = Postemergence, Rate 125 g/ha, scale 0 to 10, 0 is no effect, 10 is complete control
[19] = Postemergence, Rate 500 g/ha, scale 0 to 10, 0 is no effect, 10 is complete control
[20] = Preemergence, Rate 62 g/ha, scale of 0 to 10 where 0 is no effect and 10 is complete control
[21] = Preemergence, Rate 125 g/ha, scale 0 to 10, 0 is no effect, 10 is complete control
[22] = Preemergence, Rate 500 g/ha, scale of 0 to 10 where 0 is no effect and 10 is complete control
[23] = Rate 250 g/ha, Postemergence, scale of 0 to 10 where 0 is no effect and 10 is complete control

In the case of CC(C)N(C(=O)n1oc(=O)n(CCC(F)(F)F)c1=O)c1ccc(F)cc1F [Compound 525], the “Blackgrass plant response rating” value [1, 17] is reported as 4, the “Blackgrass plant response rating” value [1, 18] is reported as 6 and the “Plant response rating, Blackgrass” value [1, 19] is reported as 8. The “Plant response rating, Blackgrass” value [1, 20] was 8, the “Blackgrass plant response rating” value [1, 21] was 7 and the “Blackgrass plant response rating” value [1, 22] was 8. For the same compound, the “Plant response rating, Blackgrass” value [1, 23] was 8, the “Redroot pigweed plant response rating” value [2, 17] was 2 and the “Redroot pigweed plant response rating” value [2, 18] was 2. The “Plant response rating, Redroot pigweed” value [2, 19] was 8, the “Plant response rating, Redroot pigweed” value [2, 20] was 0 and the “Redroot pigweed plant response rating” value [2, 21] was 0. For the same compound, the “Redroot pigweed plant response rating” value [2, 22] was 3, the “Plant response rating, Redroot pigweed” value [2, 23] was 9 and the “Rape plant response rating” value [3, 17] was 0. For the same compound, the “Rape plant response rating” value [3, 18] was 0, the “Plant response rating, Rape” value [3, 19] was 8 and the “Plant response rating, Rape” value [3, 20] was 0. The “Rape plant response rating” value [3, 21] was 0, the “Rape plant response rating” value [3, 22] was 4 and the “Plant response rating, Rape” value [3, 23] was 3. The “Sugarbeets plant response rating” value [4, 17] was 0, the “Sugarbeets plant response rating” value [4, 18] was 0 and the “Plant response rating, Sugarbeets” value [4, 19] was 8. For the same compound, the “Plant response rating, Sugarbeets” value [4, 20] was 5, the “Sugarbeets plant response rating” value [4, 21] was 8 and the “Sugarbeets plant response rating” value [4, 22] was 9. The “Plant response rating, Sugarbeets” value [4, 23] was 6, the “Wild oats plant response rating” value [5, 17] was 0 and the “Wild oats plant response rating” value [5, 18] was 2. For the same compound, the “Plant response rating, Wild oats” value [5, 19] was 6, the “Plant response rating, Wild oats” value [5, 20] was 5 and the “Wild oats plant response rating” value [5, 22] was 8. For the same compound, the “Plant response rating, Wild oats” value [5, 23] was 4, the “Cocklebur plant response rating” value [6, 17] was 2 and the “Cocklebur plant response rating” value [6, 18] was 2. For the same compound, the “Plant response rating, Cocklebur” value [6, 19] was 2, the “Plant response rating, Cocklebur” value [6, 20] was 0 and the “Cocklebur plant response rating” value [6, 21] was 0. For the same compound, the “Cocklebur plant response rating (0 to 10 scale)” value ([6]; Preemergence, Rate 250 g/ha) was 0, the “Plant response rating, Cocklebur” value [6, 23] was 2 and the “Crabgrass plant response rating” value [7, 17] was 6. For the same compound, the “Plant response rating, Crabgrass” value [7, 19] was 9, the “Plant response rating, Crabgrass” value [7, 20] was 9 and the “Crabgrass plant response rating” value [7, 21] was 9. The “Crabgrass plant response rating (0 to 10 scale)” value ([7]; Preemergence, Rate 250 g/ha) was 10, the “Crabgrass plant response rating” value [7, 22] was 10 and the “Plant response rating, Crabgrass” value [7, 23] was 9. For the same compound, the “Corn plant response rating” value [8, 17] was 0, the “Corn plant response rating” value [8, 18] was 0 and the “Plant response rating, Corn” value [8, 19] was 2. For the same compound, the “Plant response rating, Corn” value [8, 20] was 0, the “Corn plant response rating” value [8, 21] was 0 and the “Corn plant response rating (0 to 10 scale)” value ([8]; Preemergence, Rate 250 g/ha) was 4. For the same compound, the “Corn plant response rating” value [8, 22] was 8, the “Plant response rating, Corn” value [8, 23] was 2 and the “Giant foxtail plant response rating” value [9, 17] was 5. The “Giant foxtail plant response rating” value [9, 18] was 8, the “Plant response rating, Giant foxtail” value [9, 19] was 9 and the “Plant response rating, Giant foxtail” value [9, 20] was 9. The “Giant foxtail plant response rating” value [9, 21] was 10, the “Giant foxtail plant response rating (0 to 10 scale)” value ([9]; Preemergence, Rate 250 g/ha) was 10 and the “Giant foxtail plant response rating” value [9, 22] was 10. The “Plant response rating, Giant foxtail” value [9, 23] was 9, the “B. signalgrass plant response rating” value [10, 17] was 0 and the “B. signalgrass plant response rating” value [10, 18] was 2. For the same compound, the “Plant response rating, B. signalgrass” value [10, 19] was 8, the “Plant response rating, B. signalgrass” value [10, 20] was 9 and the “B. signalgrass plant response rating” value [10, 22] was 9. The “Plant response rating, B. signalgrass” value [10, 23] was 2, the “Nutsedge plant response rating” value [11, 17] was 0 and the “Nutsedge plant response rating” value [11, 18] was 0. The “Plant response rating, Nutsedge” value [11, 19] was 5, the “Plant response rating, Nutsedge” value [11, 20] was 0 and the “Nutsedge plant response rating” value [11, 21] was 0. For the same compound, the “Nutsedge plant response rating (0 to 10 scale)” value ([11]; Preemergence, Rate 250 g/ha) was 0, the “Nutsedge plant response rating” value [11, 22] was 0 and the “Plant response rating, Nutsedge” value [11, 23] was 5. The “Morningglory plant response rating” value [12, 17] was 2, the “Morningglory plant response rating” value [12, 18] was 2 and the “Plant response rating, Morningglory” value [12, 19] was 3. The “Plant response rating, Morningglory” value [12, 20] was 0, the “Morningglory plant response rating” value [12, 21] was 0 and the “Morningglory plant response rating (0 to 10 scale)” value ([12]; Preemergence, Rate 250 g/ha) was 0. For the same compound, the “Morningglory plant response rating” value [12, 22] was 6, the “Plant response rating, Morningglory” value [12, 23] was 2 and the “Soybean plant response rating” value [13, 17] was 3. The “Soybean plant response rating” value [13, 18] was 5, the “Plant response rating, Soybean” value [13, 20] was 0 and the “Soybean plant response rating” value [13, 21] was 0. For the same compound, the “Soybean plant response rating (0 to 10 scale)” value ([13]; Preemergence, Rate 250 g/ha) was 0, the “Soybean plant response rating” value [13, 22] was 0 and the “Plant response rating, Soybean” value [13, 23] was 5. For the same compound, the “Wheat plant response rating” value [14, 17] was 0, the “Wheat plant response rating” value [14, 18] was 2 and the “Plant response rating, Wheat” value [14, 19] was 5. For the same compound, the “Plant response rating, Wheat” value [14, 20] was 3, the “Wheat plant response rating” value [14, 22] was 3 and the “Plant response rating, Wheat” value [14, 23] was 5. The “Velvetleaf plant response rating” value [15, 17] was 2, the “Velvetleaf plant response rating” value [15, 18] was 3 and the “Plant response rating, Velvetleaf” value [15, 19] was 3. The “Plant response rating, Velvetleaf” value [15, 20] was 2, the “Velvetleaf plant response rating” value [15, 21] was 3 and the “Velvetleaf plant response rating (0 to 10 scale)” value ([15]; Preemergence, Rate 250 g/ha) was 3. The “Velvetleaf plant response rating” value [15, 22] was 4, the “Plant response rating, Velvetleaf” value [15, 23] was 3 and the “Plant response rating, Bedstraw” value ([16]; Rate 62 g/ha, scale of 0 to 10 where 0 is no effect and 10 is complete control) was 0. For the same compound, the “Bedstraw plant response rating” value ([16]; Rate 125 g/ha, scale 0 to 10, 0 is no effect, 10 is complete control) was 0, the “Bedstraw plant response rating (0 to 10 scale)” value ([16]; Rate 250 g/ha) was 0 and the “Bedstraw plant response rating” value ([16]; Rate 500 g/ha, scale of 0 to 10 where 0 is no effect and 10 is complete control) was 0.
